The structures appear in SMILES notation. Numbered stars: 1 amine (or outer) side, 2 acyl side, 3 side chain; on linkers, the order of the positions; unused ones are H or OH. Side chains are listed from the residue outwards. Peptide text beside a SMILES is read from it. * marks the point of attachment. γGlu = O=C(O)[C@H](CCC(=O)[*:2])N[*:1]; Palmitoyl = CCCCCCCCCCCCCCCC(=O)*

Experimental findings from patent US20200354426A1 (MEDIMMUNE LIMITED, priority 2016, published 2020) are described below.

Holding throughout (assay): cAMP activity assay in assay medium (assay 1)
Common to all, as to type: cell-based

Assay [1] concerns the target Human GLP1R (Homo sapiens, UniProt P43220). On the set-up: expressed in transfected cells. The settings on record: assay medium; Table 4; read-out: hGLP1R EC50. The text has this: (§1) Biological Activity of Peptides in Cell-Based cAMP Activity Assay (Assay 1):
(§2) All sample dilutions were made in duplicate.

Assay [2] has as its target T1, Human GIPr (Homo sapiens, UniProt P48546).
T1 construct: expressed in transfected cells
T1 sequence (P48546 22-466): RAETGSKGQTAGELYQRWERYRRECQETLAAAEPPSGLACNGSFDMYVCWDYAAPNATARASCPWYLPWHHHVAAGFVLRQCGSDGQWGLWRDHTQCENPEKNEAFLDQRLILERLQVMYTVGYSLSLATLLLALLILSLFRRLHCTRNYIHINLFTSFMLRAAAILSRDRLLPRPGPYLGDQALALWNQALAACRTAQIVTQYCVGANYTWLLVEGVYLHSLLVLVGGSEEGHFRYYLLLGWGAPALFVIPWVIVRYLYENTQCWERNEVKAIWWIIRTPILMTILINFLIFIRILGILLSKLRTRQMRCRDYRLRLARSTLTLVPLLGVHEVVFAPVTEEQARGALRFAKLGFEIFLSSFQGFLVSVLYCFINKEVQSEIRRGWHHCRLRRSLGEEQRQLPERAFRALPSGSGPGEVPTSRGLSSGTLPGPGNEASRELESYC
The following applies: assay medium; Table 4; read-out: hGIPR EC50.
Description: as §1, §2

Assay [3] concerns the target T2, Human GlucR (Homo sapiens, UniProt P47871).
T2 construct: expressed in transfected cells
The following applies: assay medium; Table 4; read-out: hGlucR EC50.
Description: as §1, §2

T2 sequence (P47871 26-477): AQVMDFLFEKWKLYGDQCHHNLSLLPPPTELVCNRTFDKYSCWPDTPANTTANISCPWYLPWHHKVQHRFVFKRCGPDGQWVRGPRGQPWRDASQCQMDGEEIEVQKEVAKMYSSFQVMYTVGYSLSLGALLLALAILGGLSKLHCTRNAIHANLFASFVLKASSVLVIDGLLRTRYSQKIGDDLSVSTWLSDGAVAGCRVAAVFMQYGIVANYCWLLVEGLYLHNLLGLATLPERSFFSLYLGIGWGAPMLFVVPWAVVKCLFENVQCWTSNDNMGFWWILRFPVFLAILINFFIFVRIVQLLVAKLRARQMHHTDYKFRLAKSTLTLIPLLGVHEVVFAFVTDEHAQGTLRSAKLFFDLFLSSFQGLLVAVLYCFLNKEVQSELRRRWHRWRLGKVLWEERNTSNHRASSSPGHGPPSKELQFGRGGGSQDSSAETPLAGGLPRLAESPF
Chain of Human GLP1R (P43220 24-463): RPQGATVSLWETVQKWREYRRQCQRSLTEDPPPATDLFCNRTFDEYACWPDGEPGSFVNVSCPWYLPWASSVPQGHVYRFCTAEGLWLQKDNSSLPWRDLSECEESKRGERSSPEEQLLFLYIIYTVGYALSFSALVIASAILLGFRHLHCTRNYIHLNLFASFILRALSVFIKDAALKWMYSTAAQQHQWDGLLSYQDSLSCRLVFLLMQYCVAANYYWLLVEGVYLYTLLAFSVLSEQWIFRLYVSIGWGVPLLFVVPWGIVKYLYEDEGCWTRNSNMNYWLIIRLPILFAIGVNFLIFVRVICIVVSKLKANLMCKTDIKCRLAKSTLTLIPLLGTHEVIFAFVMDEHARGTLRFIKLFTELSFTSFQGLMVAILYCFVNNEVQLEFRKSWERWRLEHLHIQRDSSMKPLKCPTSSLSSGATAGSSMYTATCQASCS

For `CCCCCCCCCCCCCCCC(=O)NCCCC[C@H](NC(=O)[C@H](C)NC(=O)[C@@H](NC(=O)[C@H](CC(N)=O)NC(=O)[C@H](CC(N)=O)NC(=O)[C@H](CCCNC(=N)N)NC(=O)[C@H](CC(N)=O)NC(=O)[C@H](CC(N)=O)NC(=O)[C@H](CCCCN)NC(=O)CNC(=O)CNC(=O)[C@H](CCCNC(=N)N)NC(=O)[C@@H](NC(=O)[C@H](CC(C)C)NC(=O)[C@H](Cc1c[nH]c2ccccc12)NC(=O)[C@H](CCC(N)=O)NC(=O)[C@@H](NC(=O)[C@H](Cc1ccccc1)NC(=O)[C@H](CC(=O)O)NC(=O)[C@H](CCC(N)=O)NC(=O)[C@H](C)NC(=O)[C@H](CCCNC(=N)N)NC(=O)[C@H](CCCNC(=N)N)NC(=O)[C@H](CO)NC(=O)[C@H](CC(=O)O)NC(=O)[C@H](CC(C)C)NC(=O)[C@H](Cc1ccc(O)cc1)NC(=O)[C@H](CCCCN)NC(=O)[C@H](CO)NC(=O)[C@H](Cc1ccc(O)cc1)NC(=O)[C@H](CC(=O)O)NC(=O)[C@H](CO)NC(=O)[C@@H](NC(=O)[C@H](Cc1ccccc1)NC(=O)[C@@H](NC(=O)CNC(=O)[C@H](CCC(N)=O)NC(=O)[C@H](CO)NC(=O)[C@@H](N)Cc1c[nH]cn1)[C@@H](C)O)[C@@H](C)O)C(C)C)C(C)C)[C@@H](C)CC)C(N)=O` [g322] (H-HSQGTFTSDYSKYLDSRRAQDFVQWLVRGGKNNRNNIAK(Palmitoyl)-NH2; N-terminus assumed), the concentration giving a half-maximal response (EC50) (commonly the concentration that produces a half-maximal response) in assay [1] is 0.0106 nM; in assay [2], 1.72 nM; in assay [3] it was 0.00355 nM.
The matching figures for `CCCCCCCCCCCCCCCC(=O)NCCCC[C@H](NC(=O)CNC(=O)CNC(=O)CNC(=O)CNC(=O)CNC(=O)CNC(=O)[C@H](CCCNC(=N)N)NC(=O)[C@@H](NC(=O)[C@H](CC(C)C)NC(=O)[C@H](Cc1c[nH]c2ccccc12)NC(=O)[C@H](CCC(N)=O)NC(=O)[C@@H](NC(=O)[C@H](Cc1ccccc1)NC(=O)[C@H](CC(=O)O)NC(=O)[C@H](CCC(N)=O)NC(=O)[C@H](C)NC(=O)[C@H](CCCNC(=N)N)NC(=O)[C@H](CCCNC(=N)N)NC(=O)[C@H](CO)NC(=O)[C@H](CC(=O)O)NC(=O)[C@H](CC(C)C)NC(=O)[C@H](Cc1ccc(O)cc1)NC(=O)[C@H](CCCCN)NC(=O)[C@H](CO)NC(=O)[C@H](Cc1ccc(O)cc1)NC(=O)[C@H](CC(=O)O)NC(=O)[C@H](CO)NC(=O)[C@@H](NC(=O)[C@H](Cc1ccccc1)NC(=O)[C@@H](NC(=O)CNC(=O)[C@H](CCC(N)=O)NC(=O)[C@H](CO)NC(=O)[C@@H](N)Cc1c[nH]cn1)[C@@H](C)O)[C@@H](C)O)C(C)C)C(C)C)C(N)=O` [g326]: 0.0247 nM, 12.6 nM and 0.00282 nM.
The matching figures for `CCCCCCCCCCCCCCCC(=O)N[C@@H](CCC(=O)NCCCC[C@H](NC(=O)CNC(=O)CNC(=O)CNC(=O)CNC(=O)CNC(=O)CNC(=O)[C@H](CCCNC(=N)N)NC(=O)[C@@H](NC(=O)[C@H](CC(C)C)NC(=O)[C@H](Cc1c[nH]c2ccccc12)NC(=O)[C@H](CCC(N)=O)NC(=O)[C@@H](NC(=O)[C@H](Cc1ccccc1)NC(=O)[C@H](CC(=O)O)NC(=O)[C@H](CCC(N)=O)NC(=O)[C@H](C)NC(=O)[C@H](CCCNC(=N)N)NC(=O)[C@H](CCCNC(=N)N)NC(=O)[C@H](CO)NC(=O)[C@H](CC(=O)O)NC(=O)[C@H](CC(C)C)NC(=O)[C@H](Cc1ccc(O)cc1)NC(=O)[C@H](CCCCN)NC(=O)[C@H](CO)NC(=O)[C@H](Cc1ccc(O)cc1)NC(=O)[C@H](CC(=O)O)NC(=O)[C@H](CO)NC(=O)[C@@H](NC(=O)[C@H](Cc1ccccc1)NC(=O)[C@@H](NC(=O)CNC(=O)[C@H](CCC(N)=O)NC(=O)[C@H](CO)NC(=O)[C@@H](N)Cc1c[nH]cn1)[C@@H](C)O)[C@@H](C)O)C(C)C)C(C)C)C(N)=O)C(=O)O` [g327]: 0.0193 nM, 12.8 nM and 0.00232 nM.
The matching figures for `CCCCCCCCCCCCCCCC(=O)N[C@@H](CCC(=O)NCCCC[C@H](NC(=O)[C@H](CO)NC(=O)[C@H](CC(=O)O)NC(=O)[C@H](CC(C)C)NC(=O)[C@H](Cc1ccc(O)cc1)NC(=O)[C@H](CCCCN)NC(=O)[C@H](CO)NC(=O)[C@H](Cc1ccc(O)cc1)NC(=O)[C@H](CC(=O)O)NC(=O)[C@H](CO)NC(=O)[C@@H](NC(=O)[C@H](Cc1ccccc1)NC(=O)[C@@H](NC(=O)CNC(=O)[C@H](CCC(N)=O)NC(=O)[C@H](CO)NC(=O)[C@@H](N)Cc1c[nH]cn1)[C@@H](C)O)[C@@H](C)O)C(=O)N[C@@H](CCCNC(=N)N)C(=O)N[C@@H](C)C(=O)N[C@@H](CCC(N)=O)C(=O)N[C@@H](CC(=O)O)C(=O)N[C@@H](Cc1ccccc1)C(=O)N[C@H](C(=O)N[C@@H](CCC(N)=O)C(=O)N[C@@H](Cc1c[nH]c2ccccc12)C(=O)N[C@@H](CC(C)C)C(=O)N[C@H](C(=O)N[C@@H](C)C(=O)NCC(=O)NCC(N)=O)C(C)C)C(C)C)C(=O)O` [g335]: 0.0733 nM, 582 nM and 0.0105 nM.
With `CCCCCCCCCCCCCCCC(=O)N[C@@H](CCC(=O)N[C@@H](CCC(=O)NCCCC[C@H](NC(=O)[C@H](CO)NC(=O)[C@H](CC(=O)O)NC(=O)[C@H](CC(C)C)NC(=O)[C@H](Cc1ccc(O)cc1)NC(=O)[C@H](CCCCN)NC(=O)[C@H](CO)NC(=O)[C@H](Cc1ccc(O)cc1)NC(=O)[C@H](CC(=O)O)NC(=O)[C@H](CO)NC(=O)[C@@H](NC(=O)[C@H](Cc1ccccc1)NC(=O)[C@@H](NC(=O)CNC(=O)[C@H](CCC(N)=O)NC(=O)[C@H](CO)NC(=O)[C@@H](N)Cc1c[nH]cn1)[C@@H](C)O)[C@@H](C)O)C(=O)N[C@@H](CCCNC(=N)N)C(=O)N[C@@H](C)C(=O)N[C@@H](CCC(N)=O)C(=O)N[C@@H](CC(=O)O)C(=O)N[C@@H](Cc1ccccc1)C(=O)N[C@H](C(=O)N[C@@H](CCC(N)=O)C(=O)N[C@@H](Cc1c[nH]c2ccccc12)C(=O)N[C@@H](CC(C)C)C(=O)N[C@H](C(=O)N[C@@H](C)C(=O)NCC(=O)NCC(N)=O)C(C)C)C(C)C)C(=O)O)C(=O)O` [g336], the concentration for a half-maximal effect (EC50) in assay [1] was found to be 0.0366 nM; in assay [2], 19.6 nM; in assay [3], 0.00177 nM.
In the case of `CCCCCCCCCCCCCCCC(=O)N[C@@H](CCC(=O)NCCCC[C@H](NC(=O)[C@H](CO)NC(=O)[C@H](CC(=O)O)NC(=O)[C@H](CC(C)C)NC(=O)[C@H](Cc1ccc(O)cc1)NC(=O)[C@H](CCCCN)NC(=O)[C@H](CO)NC(=O)[C@H](Cc1ccc(O)cc1)NC(=O)[C@H](CC(=O)O)NC(=O)[C@H](CO)NC(=O)[C@@H](NC(=O)[C@H](Cc1ccccc1)NC(=O)[C@@H](NC(=O)CNC(=O)[C@H](CCC(=O)O)NC(=O)[C@H](CO)NC(=O)[C@@H](N)Cc1c[nH]cn1)[C@@H](C)O)[C@@H](C)O)C(=O)N[C@@H](CCCNC(=N)N)C(=O)N[C@@H](C)C(=O)N[C@@H](CCC(N)=O)C(=O)N[C@@H](CC(=O)O)C(=O)N[C@@H](Cc1ccccc1)C(=O)N[C@H](C(=O)N[C@@H](CCC(N)=O)C(=O)N[C@@H](Cc1c[nH]c2ccccc12)C(=O)N[C@@H](CC(C)C)C(=O)N[C@H](C(=O)N[C@@H](C)C(=O)NCC(=O)NCC(N)=O)C(C)C)C(C)C)C(=O)O` [g381] (H-HSEGTFTSDYSKYLDSK([γGlu-Palmitoyl])RAQDFVQWLVAGG-NH2; N-terminus assumed), the concentration giving a half-maximal response (EC50) in assay [1] amounted to 0.0908 nM; in assay [2] it was 545 nM; in assay [3] it was 1.93 nM.
